The test system of one series is tip of the tongue of the volunteers. Conditions: human, in vivo.
With `CC(C)Oc1ccc(/C=C/C(=O)N2CCOCC2)cc1` [vi, 3-(4-isopropyloxyphenyl)-2E-propenoic acid morpholine amide], the Pungency index is given as 10^6.

Regarding `O=C(/C=C/C=C/c1ccc2c(c1)OCO2)N1CCCCC1` [A, reference compound], the Pungency index is 10^4.

`CCCCOc1ccc(/C=C/C(=O)N2CCOCC2)cc1` [vii, 3-(4-butyloxyphenyl)-2E-propenoic acid morpholine amide]: the Pungency index is recorded as 10^7.

For the compound `CC1(C)CCc2cc(/C=C/C=C/C(=O)N3CCOCC3)ccc2O1` [iii, 5-(2H)-2,2-dimethyl-3,4-dihydro-benzopyran-6yl-2E, 4E-pentadienoic acid morpholine amide], the Pungency index is 10^4.

“3-[(2H)-2,2-dimethyl-3,4-dihydro-benzopyran-6yl]-2E-propenoic acid morpholine amide [ix]”: the Pungency index is 10^6.

With `CC(C)Oc1ccc(/C=C/C=C/C(=O)N2CCOCC2)cc1` [ii, 5-(4-isopropyloxyphenyl)-2E, 4E-pentadienoic acid morpholine amide], the Pungency index is listed as 10^7.

`O=C(/C=C/C=C/c1ccc2c(c1)OCCO2)N1CCOCC1` [iv, 5-(3,4-ethylenedioxyphenyl)-2E, 4E-pentadienoic acid morpholine amide]: the Pungency index is on record as 10^4.

As for `COc1ccc(/C=C/C=C/C(=O)N2CCOCC2)cc1` [i, 5-(4-methoxyphenyl)-2E, 4E-pentadienoic acid morpholine amide], the Pungency index is 10^6.

With `O=C(/C=C/c1ccc2c(c1)OCCO2)N1CCOCC1` [x, 3-(3,4-ethylenedioxyphenyl)-2E-propenoic acid morpholine amide], the Pungency index is reported as 10^4.

For the compound “3-(4-allyloxy phenyl)-2E-propenoic acid morpholine amide [viii]”, the Pungency index was 10^4.

On to `COc1ccc(/C=C/C(=O)N2CCOCC2)cc1` [v, 3-(4-methoxyphenyl)-2E-propenoic acid morpholine amide], for which the Pungency index was 10^5.

A further series relates to tongue. To be noted: in vivo; cited from earlier work.
As to `COc1cc(CNC(=O)CCCC/C=C/C(C)C)ccc1O` [capsaicin], the “heat units (pungency)” value was 10^7 units.

Another series relates to hepatic drug metabolizing enzymes. To be noted: rat, in vivo; cited from earlier work.
`O=C(/C=C/C=C/c1ccc2c(c1)OCO2)N1CCCCC1` [piperine]: the “effect on hepatic drug metabolizing enzymes” value was “inhibiting their activity”.

The values are drawn from patent publication US7262296B2 (priority 2002, dated 2007).
